Experiment [1] addresses biotinylated KRAS G12C protein (GMP-PNP loaded) and GST-tagged Ras binding domain of c-RAF (Homo sapiens, UniProt P01116, C118S/C51S/C80L/G12C). Description: RAS:RAF-RBD binding assay (TR-FRET). To be noted: 30-minute incubation with KRAS G12C, then RAF-RBD 60 minute. The format is biochemical.
The test system of experiment [2] is tumor-bearing mice expressing the KRAS G12C mutation. The conditions noted are these: cited from earlier work.
Experiment [3] deals with cancer cells with the KRAS G12C mutation. The conditions noted are these: cited from earlier work.

These results are taken from patent US20240246968A1, “SMALL MOLECULE INHIBITORS OF KRAS G12C MUTANT” (Merck Sharp & Dohme LLC, priority 2021, published 2024).

Sequence of biotinylated KRAS G12C protein (GMP-PNP loaded) and GST-tagged Ras binding domain of c-RAF (P01116 with tags, fused parts or gaps isoform P01116-2 G12C/C51S/C80L/C118S): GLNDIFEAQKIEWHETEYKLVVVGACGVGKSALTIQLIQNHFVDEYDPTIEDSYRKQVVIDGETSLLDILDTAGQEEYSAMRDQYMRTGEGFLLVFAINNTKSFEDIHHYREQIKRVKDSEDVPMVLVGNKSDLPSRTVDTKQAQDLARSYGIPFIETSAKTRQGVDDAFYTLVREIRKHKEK

In the case of `Cc1nc2c(Cl)c(-c3cccn4c(C(=O)c5cc(F)c(NC(=O)/C=C/CN6CCCC6C(C)(C)O)c(F)c5)ccc34)c(C(F)(F)F)cc2n1C` (stereo not drawn) [Example 129, mono((E)-4-chloro-5-(3-(3,5-difluoro-4-(4-(2-(2-hydroxypropan-2-yl)pyrrolidin-1-ium-1-yl)but-2-enamido)benzoyl)indolizin-8-yl)-1,2-dimethyl-6-(trifluoromethyl)-1H-benzo[d]imidazol-3-ium) mono(2,2,2-trifluoroacetate)], the IC50 in experiment [1] was determined as 0.101 µM. Still for that read-out and setting: next, `Cc1c2cc(C(F)(F)F)c(-c3cccn4c(C(=O)c5cc(F)c(NC(=O)/C=C/CNC6(C)COC6)c(F)c5)ccc34)c(O)c2nn1C` (single isomer, unassigned) [Example 123, (E)-N-(4-((2,6-difluoro-4-(8-(7-hydroxy-2,3-dimethyl-5-(trifluoromethyl)-2H-indazol-6-yl)indolizine-3-carbonyl)phenyl)amino)-4-oxobut-2-en-1-yl)-3-methyloxetan-3-aminium 2,2,2-trifluoroacetate]: 0.0784 µM. The same measure, in the same setting: to `Cc1nc2c(Cl)c(-c3cccn4c(C(=O)c5cc(F)c(NC(=O)/C=C/CNC6CCC6(C)C)c(F)c5)ccc34)c(C(F)(F)F)cc2n1C` (stereo not drawn) [Example 127, mono((E)-4-chloro-5-(3-(4-(4-((2,2-dimethylcyclobutyl)ammonio)but-2-enamido)-3,5-difluorobenzoyl)indolizin-8-yl)-1,2-dimethyl-6-(trifluoromethyl)-1H-benzo[d]imidazol-3-ium) mono(2,2,2-trifluoroacetate)] belongs 0.403 µM; to `CO[C@H]1CC[C@H](NC/C=C/C(=O)Nc2c(F)cc(C(=O)c3ccc4c(-c5cc6c(=O)n(C)ccc6cc5C(F)(F)F)cccn34)cc2F)CC1` [Example 125, (1r,4r)-N-((E)-4-((2,6-difluoro-4-(8-(2-methyl-1-oxo-6-(trifluoromethyl)-1,2-dihydroisoquinolin-7-yl)indolizine-3-carbonyl)phenyl)amino)-4-oxobut-2-en-1-yl)-4-methoxycyclohexan-1-aminium 2,2,2-trifluoroacetate], 0.398 µM; to `Cc1nc2c(Cl)c(-c3cccn4c(C(=O)c5cc(F)c(NC(=O)/C=C/CNC6(C)CCOC6)c(F)c5)ccc34)c(C(F)(F)F)cc2n1C` (single isomer, unassigned) [Example 131b, (E)-N-(4-(8-(4-chloro-1,2-dimethyl-6-(trifluoromethyl)-1H-benzo[d]imidazol-5-yl)indolizine-3-carbonyl)-2,6-difluorophenyl)-4-((3-methyltetrahydrofuran-3-yl)amino)but-2-enamide], 0.0124 µM.

`CO[C@H]1CC[C@H](NC/C=C/C(=O)Nc2c(F)cc(C(=O)c3ccc4c(-c5cc6c(cc5C(F)(F)F)CCN(C)C6=O)cccn34)cc2F)CC1` [Example 121, (1r,4r)-N-((E)-4-((2,6-difluoro-4-(8-(2-methyl-1-oxo-6-(trifluoromethyl)-1,2,3,4-tetrahydroisoquinolin-7-yl)indolizine-3-carbonyl)phenyl)amino)-4-oxobut-2-en-1-yl)-4-methoxycyclohexan-1-aminium 2,2,2-trifluoroacetate] displayed an IC50 in experiment [1] of 0.168 µM. On the same count and under the same terms, to `COc1c(-c2cccn3c(C(=O)c4cc(F)c(NC(=O)/C=C/CN[C@H]5CC[C@H](OC)CC5)c(F)c4)ccc23)c(C(F)(F)F)cc2c1cnn2C` (single isomer, unassigned) [Example 117, (E)-N-(2,6-difluoro-4-(8-(4-methoxy-1-methyl-6-(trifluoromethyl)-1H-indazol-5-yl)indolizine-3-carbonyl)phenyl)-4-(((1r,4r)-4-methoxycyclohexyl)amino)but-2-enamide] belongs 0.0565 µM; to `Cc1nc2c(Cl)c(-c3cccn4c(C(=O)c5cc(F)c(NC(=O)/C=C/CN6CCC[C@H]6CO)c(F)c5)ccc34)c(C(F)(F)F)cc2n1C` [Example 130, mono(4-chloro-5-(3-(3,5-difluoro-4-((E)-4-((2S)-2-(hydroxymethyl)pyrrolidin-1-ium-1-yl)but-2-enamido)benzoyl)indolizin-8-yl)-1,2-dimethyl-6-(trifluoromethyl)-1H-benzo[d]imidazol-3-ium) mono(2,2,2-trifluoroacetate)], 0.0959 µM. The same measure, in the same setting: to `CO[C@H]1CC[C@H](NC/C=C/C(=O)Nc2c(F)cc(C(=O)c3ccc4c(-c5cc6ncccc6cc5C(F)(F)F)cccn34)cc2F)CC1` [Example 120, mono(7-(3-(3,5-difluoro-4-((E)-4-(((1r,4r)-4-methoxycyclohexyl)ammonio)but-2-enamido)benzoyl)indolizin-8-yl)-6-(trifluoromethyl)quinolin-1-ium) mono(2,2,2-trifluoroacetate)] belongs 0.482 µM. For `C=CC(=O)N1CCN(c2ncnc3c(F)c(-c4c(O)cccc4F)c(Cl)cc23)CC1` [ARS-1620], in experiment [2], the antitumor action result is “exerts antitumor action”. Turning to `C=CC(=O)N1CC(N2CCN(C(=O)CNc3cc(C4(C)CC4)c(Cl)cc3O)CC2)C1` [ARS-853], the “inhibition of KRAS activity and antiproliferative effect under EGFR activation” value in experiment [3] (KRAS G12C mutated cell line, EGFR activation) is reported as “attenuated”. The induction of apoptosis entry in experiment [3] (cancer cells with the KRAS G12C mutation) is “inducing apoptosis”. Take `Cc1c(-c2cccn3c(C(=O)c4cc(F)c(NC(=O)/C=C/CN[C@H]5CCOC5)c(F)c4)ccc23)ccc2c1CCC2O` (stereo partly drawn) [Example 132, (3S)—N-((E)-4-((2,6-difluoro-4-(8-(1-hydroxy-4-methyl-2,3-dihydro-1H-inden-5-yl)indolizine-3-carbonyl)phenyl)amino)-4-oxobut-2-en-1-yl)tetrahydrofuran-3-aminium 2,2,2-trifluoroacetate]: in experiment [1], the IC50 is 0.3 µM. As for `CO[C@H]1CC[C@H](NC/C=C/C(=O)Nc2c(F)cc(C(=O)c3ccc4c(-c5c(C(F)(F)F)cc6c(cnn6C)c5Cl)cccn34)cc2F)CC1` (single isomer, unassigned) [Example 118, (E)-N-(4-(8-(4-chloro-1-methyl-6-(trifluoromethyl)-1H-indazol-5-yl)indolizine-3-carbonyl)-2,6-difluorophenyl)-4-(((1r,4r)-4-methoxycyclohexyl)amino)but-2-enamide], in experiment [1], the concentration for half-maximal inhibition (IC50) was 0.461 µM. In turn, `CO[C@H]1CC[C@H](NC/C=C/C(=O)Nc2c(F)cc(C(=O)n3ccc4c(-c5c(C(F)(F)F)cc6c(nc(C)n6C)c5Cl)cccc43)cc2F)CC1` [Example 126, (E)-N-(4-(4-(4-chloro-1,2-dimethyl-6-(trifluoromethyl)-1H-benzo[d]imidazol-5-yl)-1H-indole-1-carbonyl)-2,6-difluorophenyl)-4-(((1r,4r)-4-methoxycyclohexyl)amino)but-2-enamide] came in with an IC50 in experiment [1] of 0.0283 µM.
